These results are taken from ChEMBL document CHEMBL1129670, “Synthesis and structure-activity relationships of N-propyl-N-(4-pyridinyl)-1H-indol-1-amine (besipirdine) and related analogs as potential therapeutic agents for Alzheimer's disease” (J Med Chem, 1996).

Some results are limits rather than exact numbers.

Experiment [1] is filed under the species Mus musculus. The experiment in a line: animal or person.
Description: Effective dose against administration in mice
The target of experiment [2] is T1, Adrenergic receptor alpha-1 (Rattus norvegicus, UniProt P15823+P23944+P43140).
T1 sequence (P15823 whole entry): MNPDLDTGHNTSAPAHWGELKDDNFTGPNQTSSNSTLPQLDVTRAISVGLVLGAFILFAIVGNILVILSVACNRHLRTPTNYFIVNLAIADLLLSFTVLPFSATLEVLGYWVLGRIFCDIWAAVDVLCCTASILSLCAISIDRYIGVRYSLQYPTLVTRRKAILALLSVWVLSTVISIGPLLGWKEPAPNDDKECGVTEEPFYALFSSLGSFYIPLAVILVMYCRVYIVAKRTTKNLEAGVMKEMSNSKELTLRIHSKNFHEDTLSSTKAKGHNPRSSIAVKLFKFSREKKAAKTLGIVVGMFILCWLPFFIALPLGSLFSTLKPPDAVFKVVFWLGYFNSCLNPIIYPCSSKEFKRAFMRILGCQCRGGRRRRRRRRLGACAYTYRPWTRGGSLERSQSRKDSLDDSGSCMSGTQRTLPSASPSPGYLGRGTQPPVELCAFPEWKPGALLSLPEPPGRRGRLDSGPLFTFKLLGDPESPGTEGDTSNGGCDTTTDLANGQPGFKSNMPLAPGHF
T1 sequence (P23944 whole entry): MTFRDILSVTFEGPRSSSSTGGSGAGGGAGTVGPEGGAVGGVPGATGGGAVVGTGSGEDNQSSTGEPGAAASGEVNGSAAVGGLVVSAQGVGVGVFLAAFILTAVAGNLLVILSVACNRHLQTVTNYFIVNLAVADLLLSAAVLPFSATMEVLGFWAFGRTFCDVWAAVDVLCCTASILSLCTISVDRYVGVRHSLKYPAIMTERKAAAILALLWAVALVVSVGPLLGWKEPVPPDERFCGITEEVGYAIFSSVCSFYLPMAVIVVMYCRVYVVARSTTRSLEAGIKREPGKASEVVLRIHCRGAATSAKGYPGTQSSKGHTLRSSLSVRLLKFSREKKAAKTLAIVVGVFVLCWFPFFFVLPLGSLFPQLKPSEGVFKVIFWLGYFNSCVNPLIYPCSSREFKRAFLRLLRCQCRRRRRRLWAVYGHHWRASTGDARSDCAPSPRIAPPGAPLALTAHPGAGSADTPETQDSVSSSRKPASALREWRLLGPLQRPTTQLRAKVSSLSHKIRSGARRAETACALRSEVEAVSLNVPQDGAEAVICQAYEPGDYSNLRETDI
T1 sequence (P43140 whole entry): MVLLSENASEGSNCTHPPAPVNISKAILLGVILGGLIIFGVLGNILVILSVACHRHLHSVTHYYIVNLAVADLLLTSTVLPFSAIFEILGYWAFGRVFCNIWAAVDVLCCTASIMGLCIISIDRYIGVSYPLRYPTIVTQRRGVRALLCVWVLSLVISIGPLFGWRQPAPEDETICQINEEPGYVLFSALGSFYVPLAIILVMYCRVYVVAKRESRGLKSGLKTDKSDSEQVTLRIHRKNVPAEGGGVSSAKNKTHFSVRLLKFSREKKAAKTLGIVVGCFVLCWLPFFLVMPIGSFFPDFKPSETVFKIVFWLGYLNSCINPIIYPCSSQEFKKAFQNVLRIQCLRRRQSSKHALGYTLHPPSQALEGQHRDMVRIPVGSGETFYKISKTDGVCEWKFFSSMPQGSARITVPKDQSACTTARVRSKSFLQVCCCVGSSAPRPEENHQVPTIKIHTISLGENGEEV
The experiment in a line: Inhibitory activity against [3H]WB-4101 binding to Alpha-1 adrenergic receptor in rat whole brain membrane. The format is cell membranes.

The target of a further experiment is T2, Acetylcholinesterase (Rattus norvegicus, UniProt P37136).
T2 sequence (P37136 whole entry): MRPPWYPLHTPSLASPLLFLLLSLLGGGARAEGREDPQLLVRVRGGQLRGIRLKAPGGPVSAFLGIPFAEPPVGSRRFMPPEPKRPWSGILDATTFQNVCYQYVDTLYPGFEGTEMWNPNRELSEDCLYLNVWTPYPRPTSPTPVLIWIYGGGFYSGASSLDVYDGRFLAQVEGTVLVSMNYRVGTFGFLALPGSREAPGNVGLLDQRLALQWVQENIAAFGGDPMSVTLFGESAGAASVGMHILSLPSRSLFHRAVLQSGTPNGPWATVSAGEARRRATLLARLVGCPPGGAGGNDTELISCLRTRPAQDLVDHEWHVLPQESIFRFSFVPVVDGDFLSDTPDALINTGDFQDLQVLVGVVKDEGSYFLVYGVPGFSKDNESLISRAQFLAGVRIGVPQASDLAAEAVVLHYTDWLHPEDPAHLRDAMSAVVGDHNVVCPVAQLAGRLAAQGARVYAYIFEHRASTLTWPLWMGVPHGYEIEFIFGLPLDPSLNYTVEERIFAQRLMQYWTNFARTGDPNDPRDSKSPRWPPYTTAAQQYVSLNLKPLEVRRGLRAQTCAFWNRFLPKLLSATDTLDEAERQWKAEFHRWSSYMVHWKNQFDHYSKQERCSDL

Experiment [3] has as its target Sodium-dependent noradrenaline transporter (Homo sapiens, UniProt P23975).
Description: Inhibitory activity against norepinephrine (NE) uptake in rat whole brain synaptosome preparation
Experiment [4] deals with Muscarinic acetylcholine receptor. The experiment is classed as cell membranes, Membrane.
Description: Inhibition of [3H]quinuclidinyl benzilate (QNB) binding from rat forebrain membranes in the presence of Zn
The test system of experiment [5] is Mus musculus. The experiment in a line: Antagonistic activity against Scopolamine induced behavioral deficits in mice at dose 0.08 mg/kg sc. The format is functional. Conditions: route subcutaneous.

Sequence of Sodium-dependent noradrenaline transporter (P23975 whole entry): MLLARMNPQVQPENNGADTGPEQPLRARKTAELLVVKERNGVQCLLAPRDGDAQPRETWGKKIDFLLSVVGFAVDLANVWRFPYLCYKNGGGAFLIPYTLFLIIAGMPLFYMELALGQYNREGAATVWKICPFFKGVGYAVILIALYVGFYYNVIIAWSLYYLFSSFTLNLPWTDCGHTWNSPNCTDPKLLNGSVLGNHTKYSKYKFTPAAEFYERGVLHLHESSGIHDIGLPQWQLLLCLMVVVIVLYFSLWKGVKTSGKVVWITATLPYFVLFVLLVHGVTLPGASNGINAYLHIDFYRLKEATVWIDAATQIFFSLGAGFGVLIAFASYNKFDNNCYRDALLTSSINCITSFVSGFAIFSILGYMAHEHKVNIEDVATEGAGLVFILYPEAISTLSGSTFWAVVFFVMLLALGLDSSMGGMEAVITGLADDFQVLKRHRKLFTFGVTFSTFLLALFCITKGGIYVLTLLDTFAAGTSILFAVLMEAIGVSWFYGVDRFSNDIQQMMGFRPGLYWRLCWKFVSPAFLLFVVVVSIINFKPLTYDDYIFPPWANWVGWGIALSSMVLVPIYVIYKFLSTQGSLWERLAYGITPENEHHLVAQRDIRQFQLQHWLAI
Description for Acetylcholinesterase: Inhibitory activity against acetylcholinesterase in rat striatal preparation

Turning to `CN(c1ccncc1)n1ccc2ccccc21`, the ED50 (commonly the dose that gives a 50% effect, or the effect in half of the subjects) in the experiment filed under Mus musculus [1] was found to be 3.5 mg/kg. In addition, the IC50 (as a rule, the concentration needed to halve the response being measured) in experiment [2] is 1.2 µM; against Acetylcholinesterase it was more than 100 µM; in experiment [3], 1 µM; in experiment [4], 5.1 µM. This molecule also came in with a Response in the experiment on Mus musculus [5] of 33%.
For the molecule `c1ccc2c(c1)ccn2Nc1ccncc1`, in the experiment filed under Mus musculus [1], the ED50 came out at 3 mg/kg. The IC50 in experiment [2] was 0.51 µM; against Acetylcholinesterase, more than 100 µM; in experiment [3] it was 2.5 µM; in experiment [4], 16 µM. Besides, the Response in the experiment with Mus musculus [5] is recorded as 20%.
`CCCN(c1ccncc1)n1ccc2ccccc21` [BESIPIRDINE]: in the experiment filed under Mus musculus [1], it took a dose of 3.1 mg/kg to reach the 50% effect level (ED50). Moreover, the IC50 in experiment [2] was 10 µM; at Acetylcholinesterase, more than 100 µM; in experiment [3], 0.43 µM; in experiment [4] it was 0.94 µM. Moreover, the Response with Mus musculus [5] is on record as 33%.
